Where two headings read alike, the source gives them in different places.
Test system: CFA-induced pain model
Assay: Antiallodynic activity on Complete Freund's Adjuvant (CFA)-induced inflammatory pain model (von Frey)
Type: in vivo, Sprague-Dawley rats
Details: rat, intraperitoneal; for response vs control in vivo at 60 mg/kg / response vs control in vivo at 18 mg/kg / response vs control in vivo at 40 mg/kg: Rattus norvegicus, read-out: CFA model: effect (%) at the concentration administered
Protocol: Male, Sprague-Dawley rats (200-220 g, Nara Bio, Korea) were habituated for 1 week before surgery and allowed free access to food and water throughout the experimentation. Room temperature and humidity were maintained at 24±2° C. and 50±10%, respectively.
CFA-induced inflammatory pain was induced by the procedure of Nagakura et al. (2003) and Gregory P. et al. (2010) with minor modifications. CFA (sigma, USA) was injected in the left plantar with a 100 ul volume under gaseous anesthesia with isoflurane a 4:4 flow ratio of NO2 Sham controls were injected with 100 ul of saline and vehicle controls were identical to CFA infusion model, except for administration of vehicles.
Tactile sensitivity (Mechanical allodynia) was evaluated using von Frey monofilaments before and after treatment, and animals were used withdrawal threshold value was less than 4 g. One week after surgery, CFA-infused animals (n=4˜6), sham-operated animals (n=12), and vehicle-operated animals (n=17) were tested for tactile sensitivity with von Frey monofilaments 3 trials in each animal. All Animals were placed in a stainless steel mashed chamber and habituated for 30 min in the test box. The tactile sensitivity for ipsilateral hind paw was measured using the up-and-down method (Dixon, 1980) with seven von Frey monofilaments (0.4, 1, 2, 4, 6, 8, and 15 g) to 3 trials. Tactile sensitivity test was followed by Dixon's method (Dixon, 1980). The 50% paw withdrawal threshold for each paw was calculated using the following formula: [Xth] log=[vFr] log+ky where [vFr] is the force of the last von Frey used, k=0.2249 which is the average interval (in log units) between the von Frey monofilaments, and y is a value that depends upon the pattern of withdrawal responses (Dixon, 1980).
[…] The test was performed peak time of efficacy (0.5 hr) after compound administration.
The relative values compared to the sham (% control) were calculated and shown in Table 4, which show an antiallodynic effect of the compound of Examples on CFA-induced pain model in rats.

Row | SMILES | response vs control in vivo at 60 mg/kg (ip, 0.5 h, 60 mg/kg, 0.5 h) [%] | response vs control in vivo at 40 mg/kg (ip, 0.5 h, 0.5 h) [%] | further results
1 | CC1(C)O[C@H](c2cnc(Cl)s2)[C@@H](COS(N)(=O)=O)O1 (stereo in doubt) [Example 166, ((4R,5S)-5-(2-chlorothiazol-5-yl)-2,2-dimethyl-1,3-dioxolan-4-yl)methyl sulfamate] | 30.4 |  | 
2 | CC1(C)OC(COS(N)(=O)=O)C(c2cnccc2Cl)O1 (stereo not shown) [Example 174, (5-(4-chloropyridin-3-yl)-2,2-dimethyl-1,3-dioxolan-4-yl)methyl sulfamate] | 24.7 |  | 
3 | Cc1ncsc1[C@@H]1OC(C)(C)O[C@H]1COS(N)(=O)=O [Example 168, ((4S,5R)-2,2-dimethyl-5-(4-methylthiazol-5-yl)-1,3-dioxolan-4-yl)methyl sulfamate] | 77.2 |  | 
4 | CC1(C)O[C@@H](COS(N)(=O)=O)[C@H](c2ccccc2N)O1 [Example 66] |  |  | response vs control in vivo at 60 mg/kg (ip, 1 h, 60 mg/kg, 1 h): 16.5%
5 | CC1(C)O[C@@H](COS(N)(=O)=O)[C@H](c2ccc(Cl)s2)O1 [Example 172, ((4S,5R)-2,2-dimethyl-5-(5-chlorothiophen-2-yl)-1,3-dioxolan-4-yl)methyl sulfamate] | 35.9 |  | 
6 | NS(=O)(=O)OC[C@@H]1OC2(CCCCC2)O[C@H]1c1ccccc1Cl [Example 12, ((2S,3S)-3-(2-chlorophenyl)-1,4-dioxaspiro[4,5]decan-2-yl)methyl sulfamate] |  |  | response vs control in vivo at 18 mg/kg (ip, 0.5 h, 0.5 h): 48.8%
7 | CC1(C)OC(COS(N)(=O)=O)C(c2ccncc2Cl)O1 (stereo not shown) [Example 173, (5-(3-chloropyridin-4-yl)-2,2-dimethyl-1,3-dioxolan-4-yl)methyl sulfamate] | 33.9 |  | 
8 | CCC1(CC)O[C@@H](CCOS(N)(=O)=O)[C@H](c2ccccc2)O1 [Example 132, 2-((4S,5S)-5-phenyl-2,2-diethyl-1,3-dioxolan-4-yl)ethyl sulfamate] |  | 24.8 | 
9 | NS(=O)(=O)OCC[C@@H]1OC2(CCCCC2)O[C@H]1c1ccccc1Cl [Example 160, 2-((2S,3S)-3-(2-chlorophenyl)-1,4-dioxaspiro[4,5]decan-2-yl)ethyl sulfamate] |  | 38.4 | 
10 | NS(=O)(=O)OC[C@@H]1OC2(CCCCC2)O[C@H]1c1ccccc1 [Example 112, ((2S,3S)-3-phenyl-1,4-dioxaspiro[4,5]decan-2-yl)methyl sulfamate] |  | 41.1 | 
11 | CC1(C)O[C@H](CCOS(N)(=O)=O)[C@@H](Cc2ccccc2)O1 [Example 114, 2-((4R,5R)-5-benzyl-2,2-dimethyl-1,3-dioxolan-4-yl)ethyl sulfamate] |  | 29.8 | 
12 | CNc1ccccc1[C@@H]1OC(C)(C)O[C@H]1COS(=O)(=O)NC [Example 104, ((4S, 5S)-5-(2-methylaminophenyl)-2,2-dimethyl-1,3-dioxolan-4-yl)methyl methylsulfamate] |  | 24.1 | 
13 | CC1(C)O[C@@H](CCOS(N)(=O)=O)[C@H](c2ccccc2)O1 [Example 130, 2-((4S,5S)-5-phenyl-2,2-dimethyl-1,3-dioxolan-4-yl)ethyl sulfamate] |  | 19.4 | 
14 | CC1O[C@@H](COS(N)(=O)=O)[C@H](c2ccccc2Cl)O1 (stereo partly drawn) [Example 6, ((4S,5S)-5-(2-chlorophenyl)-2-methyl-1,3-dioxolan-4-yl)methyl sulfamate] | 22.4 |  | 
15 | NS(=O)(=O)OCC[C@H]1OC2(CCCCC2)O[C@@H]1Cc1ccccc1 [Example 120, 2-((2R,3R)-3-benzyl-1,4-dioxaspiro[4,5]decan-2-yl)ethyl sulfamate] |  | 23 | 
16 | NS(=O)(=O)OCC[C@@H]1OC2(CCCCC2)O[C@H]1c1ccccc1 [Example 136, 2-((2S,3S)-3-phenyl-1,4-dioxaspiro[4,5]decan-2-yl)ethyl sulfamate] |  |  | response vs control in vivo at 18 mg/kg (ip, 0.5 h, 0.5 h): 32.4%
17 | Cc1nc(Cl)sc1[C@@H]1OC(C)(C)O[C@H]1COS(N)(=O)=O [Example 170, ((4S,5R)-2,2-dimethyl-5-(2-chloro-4-methylthiazol-5-yl)-1,3-dioxolan-4-yl)methyl sulfamate] | 24.2 |  | 
18 | NS(=O)(=O)OC[C@@H]1OC2(CCCC2)O[C@H]1c1ccccc1Cl [Example 10, ((2S,3S)-3-(2-chlorophenyl)-1,4-dioxaspiro[4,4]nonan-2-yl)methyl sulfamate] | 20.7 |  | 
19 | CC1(C)O[C@@H](COS(N)(=O)=O)[C@H](c2c(Cl)cccc2Cl)O1 [Example 52, ((4S,5S)-5-(2,6-dichlorophenyl)-2,2-dimethyl-1,3-dioxolan-4-yl)methyl sulfamate] | 33.3 |  | 
20 | CC1(C)O[C@@H](COS(N)(=O)=O)[C@H](c2ccc(Cl)cc2Cl)O1 [Example 40, ((4S,5S)-5-(2,4-dichlorophenyl)-2,2-dimethyl-1,3-dioxolan-4-yl)methyl sulfamate] | 22.5 |  | 
21 | NS(=O)(=O)OC[C@@H]1OC(=O)O[C@H]1c1ccccc1[N+](=O)[O-] [Example 90, ((4S, 5S)-5-(2-nitrophenyl)-2-oxo-1,3-dioxolan-4-yl)methyl sulfamate] | 15.6 |  | 
22 | CC1(C)OC(COS(N)(=O)=O)C(c2ccccc2Cl)O1 (mixture of isomers) [Example 4, (5-(2-chlorophenyl)-2,2-dimethyl-1,3-dioxolan-4-yl)methyl sulfamate(SR & RS mixture)] |  |  | CFA model: effect (%) at the concentration administered (60 mg/kg, 0.5 h): ^#60 (49.9%, 0.5 h)
23 | CC1(C)O[C@H](c2cnc(Cl)s2)[C@@H](COS(N)(=O)=O)O1 [Example 165, ((4R,5S)-5-(2-chlorothiazol-5-yl)-2,2-dimethyl-1,3-dioxolan-4-yl)methyl sulfamate] |  |  | ED50 (ip, von Frey, 0.5 h): > 60 mg/kg; CFA model: adverse observation (noted with ED50 >60 mg/kg): Seizure
24 | CC1(C)O[C@H](c2ccccc2Cl)[C@@H](COS(N)(=O)=O)O1 [Example 1, ((4R,5R)-5-(2-chlorophenyl)-2,2-dimethyl-1,3-dioxolan-4-yl)methyl sulfamate] | 21.1 |  | 
25 | CCC1(CC)O[C@@H](COS(N)(=O)=O)[C@H](c2ccccc2)O1 [Example 108, ((4S,5S)-5-phenyl-2,2-diethyl-1,3-dioxolan-4-yl)methyl sulfamate] |  | 37.5 | 
26 | NS(=O)(=O)OCC[C@H]1OC2(CCCCC2)O[C@@H]1Cc1ccccc1Cl [Example 144, 2-((2R,3R)-3-(2-chlorobenzyl)-1,4-dioxaspiro[4,5]decan-2-yl)ethyl sulfamate] |  | 36.6 | 
27 | NS(=O)(=O)OC[C@H]1OC2(CCCCC2)O[C@@H]1Cc1ccccc1Cl [Example 152, ((2R,3R)-3-(2-chlorobenzyl)-1,4-dioxaspiro[4,5]decan-2-yl)methyl sulfamate] |  | 34.9 | 
28 | CC1(C)O[C@@H](COS(N)(=O)=O)[C@H](c2sc(Cl)nc2Cl)O1 [Example 164, ((4S,5R)-5-(2,4 dichlorothiazol-5-yl)-2,2-dimethyl-1,3-dioxolan-4-yl)methyl sulfamate] | 66.8 |  | 
29 | CCC1(CC)O[C@@H](COS(N)(=O)=O)[C@H](c2ccccc2Cl)O1 [Example 8, ((4S,5S)-5-(2-chlorophenyl)-2,2-diethyl-1,3-dioxolan-4-yl)methyl sulfamate] |  | 23.3 | 
30 | NS(=O)(=O)OC[C@H]1OC2(CCCC2)O[C@@H]1Cc1ccccc1Cl [Example 150, ((2R,3R)-3-(2-chlorobenzyl)-1,4-dioxaspiro[4,4]nonan-2-yl)methyl sulfamate] |  | 17.6 | 

— US9834535B2, “Sulfamate derivative compounds for use in treating or alleviating pain” (Bio-Pharm Solutions Co., Ltd., priority 2013, dated 2017)
